# Data: patent US20250236609A1, “VPS34 INHIBITORS AND METHODS OF USE THEREOF” (Deciphera Pharmaceuticals, LLC, priority 2023, published 2025)
# How the values were obtained:
# [1] = target: VPS34 (Homo sapiens (Human), UniProt Q8NEB9); experiment: Biochemical Assay for VPS34 (ADP-Glo kinase activity assay); details: 25 nM VPS34, 1 mM ATP, 1-hour incubation at 37° C.; read-out: VPS34 (Inhibition of biochemical activity of VPS34, IC50)
# Procedure: Activity of VPS34 kinase was determined using an ADP-Glo kinase activity assay (Promega Corp). Assays were conducted in 384-well plates (5 μL assay volume) using 25 nM VPS34 (ThermoFisher Scientific), […] PI:3PS Lipid Kinase Substrate (Promega Corp.), and 1 mM ATP in kinase buffer. Inhibition of VPS34 was measured by adding serial diluted test compound (final assay concentration of 0.1% DMSO) followed by a 1-hour incubation at 37° C. ADP-Glo reagent was then added ([…]) followed by a 40 min incubation at rt. Kinase detection reagent was then added ([…]) and followed by a 60 min incubation at rt. Luminescence was then detected. The RLU at each compound concentration of was converted to percent inhibition using controls (i.e., reaction with no test compound and reaction with a known inhibitor) and IC50 values were calculated by fitting a four-parameter sigmoidal curve to the data using GeneData Screener software.
# VPS34 Protein Sequence (Full Length with GST Tag)
# [2] = target: PI3K (p110α (E542K)/p85α) (Homo sapiens (Human), UniProt P42336, E542K); experiment: Lipid kinase selectivity panel (Reaction Biology); type: biochemical; details: 1 μM compound, single dose duplicates, 10 μM ATP; read-out: Percent inhibition relative to DMSO control, PI3K (p110α (E542K)/p85α)
# PI3K (p110α (E542K)/p85α), sequence (P42336 whole entry E542K): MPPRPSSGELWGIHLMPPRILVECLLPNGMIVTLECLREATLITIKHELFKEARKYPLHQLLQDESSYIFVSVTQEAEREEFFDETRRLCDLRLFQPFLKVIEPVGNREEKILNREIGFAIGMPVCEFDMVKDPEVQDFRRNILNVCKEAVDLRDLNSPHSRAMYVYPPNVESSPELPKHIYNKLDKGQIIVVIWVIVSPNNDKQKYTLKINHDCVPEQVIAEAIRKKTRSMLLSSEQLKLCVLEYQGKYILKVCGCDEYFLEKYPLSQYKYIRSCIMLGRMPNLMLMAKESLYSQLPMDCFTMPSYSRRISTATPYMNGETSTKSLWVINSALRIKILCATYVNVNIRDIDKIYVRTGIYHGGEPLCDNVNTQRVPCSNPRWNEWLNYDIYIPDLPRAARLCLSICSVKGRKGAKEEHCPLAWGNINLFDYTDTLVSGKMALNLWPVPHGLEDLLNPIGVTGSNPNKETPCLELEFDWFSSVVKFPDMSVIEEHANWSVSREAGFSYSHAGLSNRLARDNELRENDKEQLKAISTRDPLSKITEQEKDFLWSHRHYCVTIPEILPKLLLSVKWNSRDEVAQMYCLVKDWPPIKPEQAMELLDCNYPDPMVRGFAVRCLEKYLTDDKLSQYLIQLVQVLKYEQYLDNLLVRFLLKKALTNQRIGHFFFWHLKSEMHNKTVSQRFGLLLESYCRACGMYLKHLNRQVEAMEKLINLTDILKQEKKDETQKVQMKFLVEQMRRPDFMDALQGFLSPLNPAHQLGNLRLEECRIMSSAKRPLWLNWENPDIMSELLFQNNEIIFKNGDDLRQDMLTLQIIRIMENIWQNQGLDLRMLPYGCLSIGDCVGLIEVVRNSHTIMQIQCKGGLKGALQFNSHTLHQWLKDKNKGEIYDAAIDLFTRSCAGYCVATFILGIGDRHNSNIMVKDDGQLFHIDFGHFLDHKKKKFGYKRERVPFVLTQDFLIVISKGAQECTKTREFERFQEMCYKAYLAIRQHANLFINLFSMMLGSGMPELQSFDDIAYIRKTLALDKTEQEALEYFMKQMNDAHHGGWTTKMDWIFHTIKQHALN
# PI3K (p110α (E542K)/p85α), sequence (P27986 whole entry partner): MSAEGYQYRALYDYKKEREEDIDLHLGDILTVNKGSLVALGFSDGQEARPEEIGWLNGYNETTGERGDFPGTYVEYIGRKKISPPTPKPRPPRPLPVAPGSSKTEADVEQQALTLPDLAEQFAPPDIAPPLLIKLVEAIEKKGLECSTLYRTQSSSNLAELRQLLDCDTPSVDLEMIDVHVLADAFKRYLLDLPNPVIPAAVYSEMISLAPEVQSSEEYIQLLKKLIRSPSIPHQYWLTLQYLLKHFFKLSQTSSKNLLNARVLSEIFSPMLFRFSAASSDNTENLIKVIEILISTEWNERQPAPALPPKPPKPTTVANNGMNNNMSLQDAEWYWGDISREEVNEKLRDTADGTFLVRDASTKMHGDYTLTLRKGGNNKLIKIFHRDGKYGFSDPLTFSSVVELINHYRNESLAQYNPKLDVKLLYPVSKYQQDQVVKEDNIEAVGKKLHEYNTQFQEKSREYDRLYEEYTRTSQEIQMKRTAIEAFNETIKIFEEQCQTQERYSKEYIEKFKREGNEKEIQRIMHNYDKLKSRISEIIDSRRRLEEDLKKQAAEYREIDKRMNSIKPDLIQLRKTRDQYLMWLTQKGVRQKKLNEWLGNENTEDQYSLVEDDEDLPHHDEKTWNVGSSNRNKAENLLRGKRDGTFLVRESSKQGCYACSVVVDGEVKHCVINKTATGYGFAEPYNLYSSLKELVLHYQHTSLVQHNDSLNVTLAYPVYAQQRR
# Procedure: (§1) The compounds of the present invention were tested in a standard lipid kinase selectivity panel: 16 other lipid kinases (Reaction Biology, Malvern, PA, USA), under conditions of non-disclosure, non-dissemination, and non-use. In brief, compounds (see Table 2) were tested at in single dose duplicates at 1 μM against lipid kinases, including PI3Kα, PI3Kβ, and PI3Kδ, and reactions were carried out at 10 μM ATP.
# [3] = target: PI3K (p110α (E545K)/p85α) (Homo sapiens (Human), UniProt P42336, E545K); experiment: Lipid kinase selectivity panel (Reaction Biology); type: biochemical; details: 1 μM compound, single dose duplicates, 10 μM ATP; read-out: Percent inhibition relative to DMSO control, PI3K (p110α (E545K)/p85α)
# PI3K (p110α (E545K)/p85α), sequence (P42336 whole entry E545K): as the sequence (P42336 whole entry E542K) above, with K542E, E545K counted along it
# PI3K (p110α (E545K)/p85α), sequence (P27986 whole entry partner): as the sequence (P27986 whole entry partner) above
# Procedure: as §1
# [4] = target: PI3K (p110α (H1047R)/p85α) (Homo sapiens (Human), UniProt P42336, H1047R); experiment: Lipid kinase selectivity panel (Reaction Biology); type: biochemical; details: 1 μM compound, single dose duplicates, 10 μM ATP; read-out: Percent inhibition relative to DMSO control, PI3K (p110α (H1047R)/p85α)
# PI3K (p110α (H1047R)/p85α), sequence (P42336 whole entry H1047R): as the sequence (P42336 whole entry E542K) above, with K542E, H1047R counted along it
# PI3K (p110α (H1047R)/p85α), sequence (P27986 whole entry partner): as the sequence (P27986 whole entry partner) above
# Procedure: as §1
# [5] = target: PI3K (p110α/p65α) (Homo sapiens (Human), UniProt P42336); experiment: Lipid kinase selectivity panel (Reaction Biology); type: biochemical; details: 1 μM compound, single dose duplicates, 10 μM ATP; read-out: Percent inhibition relative to DMSO control, PI3K (p110α/p65α)
# PI3K (p110α/p65α), sequence (P42336 whole entry, species assumed): as the sequence (P42336 whole entry E542K) above, with K542E counted along it
# Procedure: as §1
# [6] = target: PI3KC2α (Homo sapiens (Human), UniProt O00443); experiment: Lipid kinase selectivity panel (Reaction Biology); type: biochemical; details: 1 μM compound, single dose duplicates, 10 μM ATP; read-out: Percent inhibition relative to DMSO control, PI3KC2α
# Procedure: as §1
# [7] = target: PI3Kb (p110β/p85α) (Homo sapiens (Human), UniProt P42338); experiment: Lipid kinase selectivity panel (Reaction Biology); type: biochemical; details: 1 μM compound, single dose duplicates, 10 μM ATP; read-out: Percent inhibition relative to DMSO control, PI3Kb (p110β/p85α)
# Procedure: as §1
# [8] = target: PI3Kd (p110δ/p85α) (Homo sapiens (Human), UniProt O00329); experiment: Lipid kinase selectivity panel (Reaction Biology); type: biochemical; details: 1 μM compound, single dose duplicates, 10 μM ATP; read-out: Percent inhibition relative to DMSO control, PI3Kd (p110δ/p85α)
# Procedure: as §1
# [9] = target: PI3Kg (p110γ) (Homo sapiens (Human), UniProt P48736); experiment: Lipid kinase selectivity panel (Reaction Biology); type: biochemical; details: 1 μM compound, single dose duplicates, 10 μM ATP; read-out: Percent inhibition relative to DMSO control, PI3Kg (p110γ)
# PI3Kg (p110γ), sequence (P48736 whole entry, species assumed): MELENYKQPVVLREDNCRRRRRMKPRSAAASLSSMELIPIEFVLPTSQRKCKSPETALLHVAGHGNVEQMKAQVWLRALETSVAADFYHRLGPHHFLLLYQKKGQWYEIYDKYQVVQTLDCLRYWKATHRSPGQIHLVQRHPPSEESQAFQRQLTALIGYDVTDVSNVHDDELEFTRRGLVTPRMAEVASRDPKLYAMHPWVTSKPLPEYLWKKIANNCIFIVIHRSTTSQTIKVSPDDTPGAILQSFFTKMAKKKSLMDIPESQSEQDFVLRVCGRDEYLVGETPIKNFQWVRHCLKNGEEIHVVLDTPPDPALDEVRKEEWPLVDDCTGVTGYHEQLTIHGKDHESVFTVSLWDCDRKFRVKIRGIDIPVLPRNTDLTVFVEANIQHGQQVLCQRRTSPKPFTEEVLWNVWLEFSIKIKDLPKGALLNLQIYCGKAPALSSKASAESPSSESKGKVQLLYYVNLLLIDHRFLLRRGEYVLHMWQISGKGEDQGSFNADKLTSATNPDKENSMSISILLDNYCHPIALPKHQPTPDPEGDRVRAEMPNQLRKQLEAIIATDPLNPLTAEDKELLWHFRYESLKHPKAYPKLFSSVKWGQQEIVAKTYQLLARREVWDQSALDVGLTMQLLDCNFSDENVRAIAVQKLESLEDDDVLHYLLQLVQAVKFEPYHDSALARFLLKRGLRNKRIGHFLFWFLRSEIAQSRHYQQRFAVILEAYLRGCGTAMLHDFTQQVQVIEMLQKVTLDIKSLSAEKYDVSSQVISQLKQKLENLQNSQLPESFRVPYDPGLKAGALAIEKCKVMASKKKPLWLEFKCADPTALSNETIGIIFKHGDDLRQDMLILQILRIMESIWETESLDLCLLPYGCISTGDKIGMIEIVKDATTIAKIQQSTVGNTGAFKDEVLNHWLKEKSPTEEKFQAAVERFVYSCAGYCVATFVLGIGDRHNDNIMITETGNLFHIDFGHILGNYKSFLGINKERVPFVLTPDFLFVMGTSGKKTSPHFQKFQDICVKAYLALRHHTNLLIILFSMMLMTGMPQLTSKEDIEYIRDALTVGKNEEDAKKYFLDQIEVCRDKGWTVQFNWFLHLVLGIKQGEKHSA
# Procedure: as §1
# [10] = target: PI3Kα (p110α/p85α) (Homo sapiens (Human), UniProt P42336); experiment: Lipid kinase selectivity panel (Reaction Biology); type: biochemical; details: 1 μM compound, single dose duplicates, 10 μM ATP; read-out: Percent inhibition relative to DMSO control, PI3Kα (p110α/p85α)
# PI3Kα (p110α/p85α), sequence (P42336 whole entry, species assumed): as the sequence (P42336 whole entry E542K) above, with K542E counted along it
# PI3Kα (p110α/p85α), sequence (P27986 whole entry partner, species assumed): as the sequence (P27986 whole entry partner) above
# Procedure: as §1
# VPS34, sequence (Q8NEB9 other isoform, or with tags, fused parts or gaps): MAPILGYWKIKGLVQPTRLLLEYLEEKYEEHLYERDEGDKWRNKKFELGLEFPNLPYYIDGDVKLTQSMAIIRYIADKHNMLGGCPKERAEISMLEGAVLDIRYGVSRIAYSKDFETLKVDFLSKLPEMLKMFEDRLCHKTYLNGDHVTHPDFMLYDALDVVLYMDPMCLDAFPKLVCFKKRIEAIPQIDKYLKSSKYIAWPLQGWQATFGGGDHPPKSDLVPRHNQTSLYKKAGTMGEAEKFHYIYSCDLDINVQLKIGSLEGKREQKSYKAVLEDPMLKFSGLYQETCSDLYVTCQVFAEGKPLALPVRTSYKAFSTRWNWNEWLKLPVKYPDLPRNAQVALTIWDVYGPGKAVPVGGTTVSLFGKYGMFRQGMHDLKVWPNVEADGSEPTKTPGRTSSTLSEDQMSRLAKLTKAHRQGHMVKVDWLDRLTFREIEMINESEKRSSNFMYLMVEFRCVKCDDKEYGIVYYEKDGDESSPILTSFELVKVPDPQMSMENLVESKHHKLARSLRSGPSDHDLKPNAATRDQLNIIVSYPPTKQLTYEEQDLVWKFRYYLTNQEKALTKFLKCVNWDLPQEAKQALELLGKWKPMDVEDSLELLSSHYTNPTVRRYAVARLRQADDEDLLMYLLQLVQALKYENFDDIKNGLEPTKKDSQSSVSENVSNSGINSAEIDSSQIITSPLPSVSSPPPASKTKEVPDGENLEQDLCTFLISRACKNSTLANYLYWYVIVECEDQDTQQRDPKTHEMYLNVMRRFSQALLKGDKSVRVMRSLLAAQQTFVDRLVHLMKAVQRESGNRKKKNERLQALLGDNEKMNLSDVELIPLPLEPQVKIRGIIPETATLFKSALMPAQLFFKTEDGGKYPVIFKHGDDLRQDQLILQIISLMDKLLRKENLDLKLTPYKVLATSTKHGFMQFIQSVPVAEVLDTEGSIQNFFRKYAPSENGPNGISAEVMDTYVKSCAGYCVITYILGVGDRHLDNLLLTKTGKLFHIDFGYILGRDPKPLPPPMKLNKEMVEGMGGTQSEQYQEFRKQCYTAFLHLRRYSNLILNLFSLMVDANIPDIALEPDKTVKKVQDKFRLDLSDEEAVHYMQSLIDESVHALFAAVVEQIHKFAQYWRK
SMILES,IC50 [1] [nM],inhibition at 1 µM [2] [%],inhibition at 1 µM [3] [%],inhibition at 1 µM [4] [%],inhibition at 1 µM [5] [%],inhibition at 1 µM [6] [%],inhibition at 1 µM [7] [%],inhibition at 1 µM [8] [%],inhibition at 1 µM [9] [%],inhibition at 1 µM [10] [%]
COC(=O)Nc1ncc(C)c(-c2cc(-c3cccnc3C(F)(F)F)[nH]c(=O)c2)n1 [Example 6],500 to 1000,4,3,19,-26,-3,-14,-2,5,-2
Cc1cnc(NC(=O)CC2CNCC2(F)F)cc1-c1cc(N2CCCC[C@@H]2C(F)(F)F)[nH]c(=O)c1 (stereo partly shown) [Example 22],100 to 500,-4,-1,-4,-4,2,-3,4,-8,3
COC(=O)Nc1cc(-c2cc(-c3cccnc3C(F)(F)F)[nH]c(=O)c2)c(C)cn1 [Example 78],100 to 500,14,12,8,15,-3,14,10,30,20
Cc1cnc(NC(=O)OC2CC3(CNC3)C2)cc1-c1cc(N2CCCC[C@@H]2C(F)(F)F)[nH]c(=O)c1 [Example 28],100 to 500,-20,-5,-3,-3,3,0,6,-10,-31
